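Results reflect a 48-hour exposure of cells in 96-well plates to compound at five concentrations. GI50 marks 50% less growth. Definition used: TGI = concentration required for complete inhibition of growth.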
Key:
Test in all cases: NCI tumour cell line growth inhibition, 48 h
HL-60(TB) leukemia = tested on: HL-60(TB) leukemia
HS 578T breast = tested on: HS 578T breast
MDA-MB-435 = tested on: MDA-MB-435
PC-3 prostate = tested on: PC-3 prostate
SF-295 CNS = tested on: SF-295 CNS
COLO 205 colon = tested on: COLO 205 colon
RPMI-8226 leukemia = tested on: RPMI-8226 leukemia
SW-620 colon = tested on: SW-620 colon
786-0 renal = tested on: 786-0 renal
HCC-2998 colon = tested on: HCC-2998 colon
UACC-62 melanoma = tested on: UACC-62 melanoma
EKVX NSCLC = tested on: EKVX NSCLC
HOP-92 NSCLC = tested on: HOP-92 NSCLC
NCI/ADR-RES ovarian = tested on: NCI/ADR-RES ovarian
LOX IMVI melanoma = tested on: LOX IMVI melanoma
OVCAR-4 ovarian = tested on: OVCAR-4 ovarian
M14 melanoma = tested on: M14 melanoma
SNB-75 CNS = tested on: SNB-75 CNS
SK-OV-3 ovarian = tested on: SK-OV-3 ovarian
KM12 colon = tested on: KM12 colon
CCRF-CEM leukemia = tested on: CCRF-CEM leukemia
K-562 leukemia = tested on: K-562 leukemia
SF-539 CNS = tested on: SF-539 CNS
MDA-MB-231 breast = tested on: MDA-MB-231 breast
IGROV1 ovarian = tested on: IGROV1 ovarian
BT-549 breast = tested on: BT-549 breast
CAKI-1 renal = tested on: CAKI-1 renal
SK-MEL-5 melanoma = tested on: SK-MEL-5 melanoma
DU-145 prostate = tested on: DU-145 prostate

## O=C(/C=C/C=C/c1ccccc1)c1ccco1
HL-60(TB) leukemia
  GI50: 10 µM
  TGI: 97.6 µM
HS 578T breast
  GI50: 17.5 µM
  TGI: 52.9 µM
MDA-MB-435
  GI50: 13.1 µM
  TGI: 29.2 µM
PC-3 prostate
  GI50: 16.4 µM
  TGI: 53 µM
SF-295 CNS
  GI50: 13.2 µM
  TGI: 34.6 µM
COLO 205 colon
  GI50: 17.9 µM
  TGI: 31.7 µM
RPMI-8226 leukemia
  GI50: 1.81 µM
  TGI: 10.7 µM
SW-620 colon
  GI50: 13.4 µM
  TGI: 28.6 µM
786-0 renal
  GI50: 15.2 µM
  TGI: 32.5 µM
HCC-2998 colon
  GI50: 15 µM
  TGI: 28.3 µM
UACC-62 melanoma
  GI50: 14.6 µM
  TGI: 28.4 µM
EKVX NSCLC
  GI50: 15.5 µM
  TGI: 62.1 µM
HOP-92 NSCLC
  GI50: 7.96 µM
  TGI: 43.7 µM
NCI/ADR-RES ovarian
  GI50: 16.4 µM
  TGI: 36.7 µM
LOX IMVI melanoma
  GI50: 13.7 µM
  TGI: 27.9 µM
OVCAR-4 ovarian
  GI50: 23.1 µM
  TGI: > 100 µM
M14 melanoma
  GI50: 17.3 µM
  TGI: 34.8 µM
SNB-75 CNS
  GI50: 18 µM
  TGI: 72.5 µM
SK-OV-3 ovarian
  GI50: 28.8 µM
  TGI: 84.6 µM
KM12 colon
  GI50: 11 µM
  TGI: 24.1 µM
CCRF-CEM leukemia
  GI50: 10.2 µM
  TGI: 33.3 µM
K-562 leukemia
  GI50: 10.1 µM
  TGI: 29.6 µM
SF-539 CNS
  GI50: 17.1 µM
  TGI: 31.5 µM
MDA-MB-231 breast
  GI50: 22.7 µM
  TGI: 57.1 µM
IGROV1 ovarian
  GI50: 18.3 µM
  TGI: 37.6 µM
BT-549 breast
  GI50: 17.2 µM
  TGI: 40.7 µM
CAKI-1 renal
  GI50: 16 µM
  TGI: 32.8 µM
SK-MEL-5 melanoma
  GI50: 15.9 µM
  TGI: 29.4 µM
DU-145 prostate
  GI50: 12.5 µM
  TGI: 25.4 µM

— PubChem BioAssay (NCI)
